Test results published in ChEMBL document CHEMBL5042472, “Design, Synthesis, and Biological Evaluation of a Novel Photocaged PI3K Inhibitor toward Precise Cancer Treatment” (J Med Chem, 2021).
The source made the active and inactive calls. No cut-off for these calls is given here.

Tests used:
[1] = Stability in rat plasma assessed as half life at 1 uM measured upto 120 min by LC-MS/MS analysis; type: ADME, cell-free
HCT-116 [2] = assay: Inhibition of PI3K/AKT signalling pathway in human HCT-116 cells assessed as downregulation of AKT phosphorylation at […] residue at 100 nM incubated for 24 hrs under dark condition by Western blot; type: cell-based
[3] = Stability in dog liver microsomes assessed as half life at 1 uM in presence of NADPH measured upto 120 min by LC-MS/MS analysis; type: ADME, Canis lupus familiaris, Microsome
[4] = Apparent permeability across apical to basolateral side in human Caco-2 cells at 10 uM incubated for 2 hrs by LC-MS/MS analysis; type: ADME, cell-based
HCT-116 [5] = assay: Induction of cell cycle arrest in human HCT-116 cells assessed as accumulation at G0/G1 phase at 100 nM irradiated with 365 nm UV light for 5 mins incubated for 24 hrs by flow cytometry; type: functional, cell-based
HCT-116 [6] = assay: Inhibition of PI3K/AKT signalling pathway in human HCT-116 cells assessed as downregulation of […] phosphorylation at 100 nM incubated for 24 hrs under dark condition by Western blot; type: cell-based
AGS = assay: Antiproliferative activity against human AGS cells assessed as reduction in cell viability irradiated with 365 nm of UV for 5 mins and incubated in dark for 96 hrs by MTT assay; type: functional, cell-based; details: light or radiation study
HGC-27 [7] = assay: Inhibition of PI3K/AKT signalling pathway in human HGC-27 cells assessed as downregulation of SRP6 phosphorylation at 100 nM irradiated with 365 nm UV light for 5 mins and incubated for 24 hrs by Western blot; type: cell-based
HCT-116 [8] = assay: Inhibition of colony formation in human HCT-116 cells irradiated with 365 nm of UV light for 5 min at 100 nM incubated for 24 hrs by crystal violet staining based assay; type: functional, cell-based
HGC-27 [9] = assay: Inhibition of PI3K/AKT signalling pathway in human HGC-27 cells assessed as downregulation of AKT phosphorylation at Ser473 residue at 100 nM irradiated with 365 nm UV light for 5 mins and incubated for 24 hrs by Western blot; type: cell-based
[10] = molecular target: T1, Phosphatidylinositol 4,5-bisphosphate 3-kinase catalytic subunit alpha isoform (Homo sapiens, UniProt P42336); assay: Inhibition of PI3K alpha (unknown origin) using PIP2 as substrate incubated in dark at room temperature for 1 hr in presence of ATP by ADP-Glo luminescent assay
T1 sequence (P42336 whole entry, canonical isoform): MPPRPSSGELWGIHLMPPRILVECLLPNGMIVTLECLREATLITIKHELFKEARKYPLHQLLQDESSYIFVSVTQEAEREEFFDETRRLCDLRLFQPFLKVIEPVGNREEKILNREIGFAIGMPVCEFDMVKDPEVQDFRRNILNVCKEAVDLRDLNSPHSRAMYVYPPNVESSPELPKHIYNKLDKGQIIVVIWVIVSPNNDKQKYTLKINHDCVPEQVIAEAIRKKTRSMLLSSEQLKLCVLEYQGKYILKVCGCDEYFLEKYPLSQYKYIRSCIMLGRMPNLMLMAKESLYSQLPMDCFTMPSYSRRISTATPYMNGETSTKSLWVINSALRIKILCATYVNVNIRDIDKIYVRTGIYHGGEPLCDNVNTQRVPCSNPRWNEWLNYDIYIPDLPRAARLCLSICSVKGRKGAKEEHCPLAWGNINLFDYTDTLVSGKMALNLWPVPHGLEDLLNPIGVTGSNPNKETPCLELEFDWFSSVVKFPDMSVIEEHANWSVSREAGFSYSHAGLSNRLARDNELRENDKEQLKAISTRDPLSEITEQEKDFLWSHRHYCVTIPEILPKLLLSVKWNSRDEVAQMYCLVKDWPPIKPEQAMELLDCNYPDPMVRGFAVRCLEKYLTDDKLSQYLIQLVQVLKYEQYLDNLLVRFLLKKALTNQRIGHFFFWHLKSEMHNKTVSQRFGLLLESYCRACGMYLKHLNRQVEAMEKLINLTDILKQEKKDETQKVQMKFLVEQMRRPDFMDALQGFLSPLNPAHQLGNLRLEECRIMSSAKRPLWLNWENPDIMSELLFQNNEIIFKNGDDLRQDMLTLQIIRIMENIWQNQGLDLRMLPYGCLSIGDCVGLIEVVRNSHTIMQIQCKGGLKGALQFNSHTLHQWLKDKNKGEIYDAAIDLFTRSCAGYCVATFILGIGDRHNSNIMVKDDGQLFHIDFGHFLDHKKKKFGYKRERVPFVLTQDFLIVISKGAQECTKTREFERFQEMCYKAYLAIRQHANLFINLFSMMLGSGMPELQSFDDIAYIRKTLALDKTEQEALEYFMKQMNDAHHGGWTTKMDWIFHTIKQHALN

[11] = Apparent permeability across basolateral to apical side in human Caco-2 cells at 10 uM incubated for 2 hrs by LC-MS/MS analysis; type: ADME, cell-based
MGC-803 = assay: Antiproliferative activity against human MGC-803 cells assessed as reduction in cell viability incubated in dark for 96 hrs by MTT assay; type: functional, cell-based; details: MGC-803, 96 h
HCT-116 [12] = assay: Induction of apoptosis in human HCT-116 cells assessed as increase in number of cells in sub-G0 phase at 100 nM incubated for 24 hrs by flow cytometry; type: functional, cell-based
[13] = Stability in dog plasma assessed as half life at 1 uM measured upto 120 min by LC-MS/MS analysis; type: ADME, cell-free, Canis lupus familiaris
HGC-27 [14] = assay: Inhibition of PI3K/AKT signalling pathway in human HGC-27 cells assessed as downregulation of AKT phosphorylation at Ser473 residue at 100 nM incubated for 24 hrs under dark condition by Western blot; type: cell-based
[15] = molecular target: T1, Phosphatidylinositol 4,5-bisphosphate 3-kinase catalytic subunit alpha isoform; assay: Inhibition of PI3K alpha (unknown origin) using PIP2 as substrate irradiated with 365 nm of UV exposure for 2 mins and incubation in dark at room temperature for 1 hr in presence of ATP measured by ADP-Glo luminescent assay
Homo sapiens [16] = organism: Homo sapiens; assay: Anticancer activity against KOES-007 patient derived stomach cancer organoid assessed as inhibition of cell growth irradiated with 365 nm of UV light for 2 mins and incubated for 120 hrs; type: functional, tissue-based
[17] = molecular target: Phosphatidylinositol 4,5-bisphosphate 3-kinase catalytic subunit beta isoform (Homo sapiens, UniProt P42338); assay: Inhibition of PI3K beta (unknown origin) using PIP2 as substrate incubated in dark at room temperature for 1 hr in presence of ATP by ADP-Glo luminescent assay
Phosphatidylinositol 4,5-bisphosphate 3-kinase catalytic subunit beta isoform, sequence (P42338 whole entry, canonical isoform): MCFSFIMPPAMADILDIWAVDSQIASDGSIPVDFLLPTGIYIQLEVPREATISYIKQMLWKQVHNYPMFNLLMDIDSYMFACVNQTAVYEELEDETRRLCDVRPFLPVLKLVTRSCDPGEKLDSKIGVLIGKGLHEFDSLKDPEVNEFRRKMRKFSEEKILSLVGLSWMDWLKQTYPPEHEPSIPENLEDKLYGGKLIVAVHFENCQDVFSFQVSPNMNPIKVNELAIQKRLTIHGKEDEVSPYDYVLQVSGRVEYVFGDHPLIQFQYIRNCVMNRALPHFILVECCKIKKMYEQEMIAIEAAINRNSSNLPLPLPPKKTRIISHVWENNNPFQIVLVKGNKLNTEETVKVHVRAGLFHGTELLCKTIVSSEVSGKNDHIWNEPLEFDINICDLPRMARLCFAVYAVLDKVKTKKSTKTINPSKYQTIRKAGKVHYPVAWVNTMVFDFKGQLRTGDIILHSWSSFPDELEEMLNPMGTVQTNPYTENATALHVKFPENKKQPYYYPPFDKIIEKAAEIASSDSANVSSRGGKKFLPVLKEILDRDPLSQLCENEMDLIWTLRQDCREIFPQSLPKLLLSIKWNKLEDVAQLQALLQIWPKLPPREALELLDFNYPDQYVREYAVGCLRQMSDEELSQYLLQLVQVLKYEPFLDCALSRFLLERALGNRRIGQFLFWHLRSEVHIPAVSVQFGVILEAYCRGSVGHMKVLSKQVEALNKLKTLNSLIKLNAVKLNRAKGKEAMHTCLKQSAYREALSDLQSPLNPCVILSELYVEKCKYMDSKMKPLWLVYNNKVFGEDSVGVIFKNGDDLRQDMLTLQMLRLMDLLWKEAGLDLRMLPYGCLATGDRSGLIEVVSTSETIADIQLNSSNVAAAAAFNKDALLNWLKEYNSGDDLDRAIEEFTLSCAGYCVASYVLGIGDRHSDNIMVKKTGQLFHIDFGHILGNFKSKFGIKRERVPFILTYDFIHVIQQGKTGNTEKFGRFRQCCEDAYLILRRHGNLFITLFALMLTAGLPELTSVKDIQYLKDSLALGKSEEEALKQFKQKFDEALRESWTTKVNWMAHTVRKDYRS

BGC-823 = assay: Antiproliferative activity against human BGC-823 cells assessed as reduction in cell viability incubated in dark for 96 hrs by MTT assay; type: functional, cell-based; details: BGC-823, 96 h
HGC-27 [18] = assay: Inhibition of PI3K/AKT signalling pathway in human HGC-27 cells assessed as downregulation of SRP6 phosphorylation at 100 nM incubated for 24 hrs under dark condition by Western blot; type: cell-based
Homo sapiens [19] = organism: Homo sapiens; assay: Anticancer activity against KOCO-096 patient derived colon cancer organoid assessed as inhibition of cell growth irradiated with 365 nm of UV light for 5 mins and incubated for 120 hrs; type: functional, tissue-based
[20] = Plasma protein binding in dog at 1 uM by LC-MS/MS analysis; type: ADME, cell-free, Canis lupus familiaris; details: read-out: PPB (converted)
HGC-27 [21] = assay: Inhibition of PI3K/AKT signalling pathway in human HGC-27 cells assessed as downregulation of AKT phosphorylation at […] residue at 100 nM incubated for 24 hrs under dark condition by Western blot; type: cell-based
HCT-116 [22] = assay: Inhibition of PI3K/AKT signalling pathway in human HCT-116 cells assessed as downregulation of AKT phosphorylation at Ser473 residue at 100 nM incubated for 24 hrs under dark condition by Western blot; type: cell-based
HCT-116 [23] = assay: Inhibition of PI3K/AKT signalling pathway in human HCT-116 cells assessed as downregulation of AKT phosphorylation at […] residue at 100 nM irradiated with 365 nm UV light for 5 mins and incubated for 24 hrs by Western blot; type: cell-based
MG-63 = assay: Antiproliferative activity against human MG-63 cells assessed as reduction in cell viability irradiated with 365 nm of UV for 5 mins and incubated in dark for 96 hrs by MTT assay; type: functional, cell-based; details: MG-63, light or radiation study

COc1cc(CN(c2cc(-c3cc(OC4CCOCC4)c4ncnc(C)c4c3)cnc2OC)S(=O)(=O)c2ccc(F)cc2F)c([N+](=O)[O-])cc1OC
half-life at 1 µM [1]: > 2 h | inhibition (HCT-116 [2]): inactive | half-life at 1 µM [3]: 4.62 min | Papp A→B at 2 h, 10 µM [4]: 0.49 ×10⁻⁶ cm/s | Activity (HCT-116 [5]): inactive | inhibition (HCT-116 [6]): inactive | IC50 (AGS): 0.0703 µM | inhibition (HGC-27 [7]): Active | inhibition (HCT-116 [8]): Active | inhibition (HGC-27 [9]): Active | IC50 [10]: 0.343 µM | Papp B→A at 2 h, 10 µM [11]: 1.95 ×10⁻⁶ cm/s | IC50 (MGC-803): 1.74 µM | inhibition (HCT-116 [12]): Active | half-life at 1 µM [13]: > 2 h | inhibition (HGC-27 [14]): inactive | IC50 [15]: 0.00058 µM | Activity (Homo sapiens [16]): Active | IC50 [17]: 0.838 µM | IC50 (BGC-823): 2.36 µM | inhibition (HGC-27 [18]): inactive | Activity (Homo sapiens [19]): Dose-Dependent Effect | fraction unbound at 1 µM [20]: 0.005 | inhibition (HGC-27 [21]): inactive | inhibition (HCT-116 [22]): inactive | inhibition (HCT-116 [23]): Active | IC50 (MG-63): 0.142 µM
